Experimental findings from patent US11952384B2, “Anti-tumor compound and preparation method and use thereof” (DUALITY BIOLOGICS (SUZHOU) CO., LTD., priority 2020, dated 2024) are described below.

For orientation: efflux ratio means the permeability from basolateral to apical divided by that in the opposite direction, in the common usage. As a reminder, the Papp A→B is the apparent permeability from the apical to the basolateral side of a cell layer. What is called Papp B→A is the apparent permeability from the basolateral to the apical side of a cell layer. For orientation: IC50 means the concentration needed to halve the response being measured. Low values mean inhibition by little substance, high ones a need for much substance.

Series [1] deals with T1, P-gp (Homo sapiens, UniProt P08183).
T1 construct: endogenous in cells; host or cells: Caco-2
T1 sequence (P08183 whole entry): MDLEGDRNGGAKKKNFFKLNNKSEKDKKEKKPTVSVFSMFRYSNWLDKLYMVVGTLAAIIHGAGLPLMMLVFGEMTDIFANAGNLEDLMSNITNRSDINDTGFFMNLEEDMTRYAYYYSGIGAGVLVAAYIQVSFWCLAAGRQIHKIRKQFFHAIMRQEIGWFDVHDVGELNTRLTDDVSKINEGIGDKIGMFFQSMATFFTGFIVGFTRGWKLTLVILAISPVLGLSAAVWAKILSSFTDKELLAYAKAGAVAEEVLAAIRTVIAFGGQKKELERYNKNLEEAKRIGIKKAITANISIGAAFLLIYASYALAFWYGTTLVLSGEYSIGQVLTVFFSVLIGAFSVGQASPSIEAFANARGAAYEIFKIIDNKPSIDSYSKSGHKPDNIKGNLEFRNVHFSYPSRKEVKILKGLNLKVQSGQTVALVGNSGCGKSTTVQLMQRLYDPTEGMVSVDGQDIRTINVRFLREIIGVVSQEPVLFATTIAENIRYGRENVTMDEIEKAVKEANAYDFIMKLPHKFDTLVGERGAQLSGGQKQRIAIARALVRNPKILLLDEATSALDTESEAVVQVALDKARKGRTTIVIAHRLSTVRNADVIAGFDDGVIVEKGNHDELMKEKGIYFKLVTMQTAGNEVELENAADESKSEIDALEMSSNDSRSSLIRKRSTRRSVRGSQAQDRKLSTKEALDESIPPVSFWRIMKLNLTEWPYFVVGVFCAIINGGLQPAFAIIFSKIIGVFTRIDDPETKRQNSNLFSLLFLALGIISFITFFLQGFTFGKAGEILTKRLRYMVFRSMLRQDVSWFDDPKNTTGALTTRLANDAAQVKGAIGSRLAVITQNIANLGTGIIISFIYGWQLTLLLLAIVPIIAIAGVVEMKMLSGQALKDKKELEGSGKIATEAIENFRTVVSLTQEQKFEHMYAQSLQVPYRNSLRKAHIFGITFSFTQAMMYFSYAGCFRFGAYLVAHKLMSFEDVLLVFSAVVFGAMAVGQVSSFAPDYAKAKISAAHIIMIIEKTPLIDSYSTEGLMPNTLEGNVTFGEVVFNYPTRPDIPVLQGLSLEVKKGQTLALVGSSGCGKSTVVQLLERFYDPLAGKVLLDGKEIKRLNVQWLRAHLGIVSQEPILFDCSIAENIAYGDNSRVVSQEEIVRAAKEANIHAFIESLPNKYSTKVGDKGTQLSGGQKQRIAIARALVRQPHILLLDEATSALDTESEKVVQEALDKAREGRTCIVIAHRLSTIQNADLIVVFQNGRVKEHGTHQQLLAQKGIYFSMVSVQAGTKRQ
The series is described as follows: Study on transporter substrates in Caco-2 cell model. In kind it is in vitro ADME. The settings on record: Caco-2. The protocol:
The resistance of each well was recorded. […] 2. […] The plate was vortexed for 10 min. The samples were centrifuged. […] HBSS was added to the basolateral compartment. […] 3. Data Analysis
Data were calculated using Microsoft Excel.

For series [2], the target named is T2, BCRP (Homo sapiens, UniProt Q9UNQ0).
T2 sequence (Q9UNQ0 1-655): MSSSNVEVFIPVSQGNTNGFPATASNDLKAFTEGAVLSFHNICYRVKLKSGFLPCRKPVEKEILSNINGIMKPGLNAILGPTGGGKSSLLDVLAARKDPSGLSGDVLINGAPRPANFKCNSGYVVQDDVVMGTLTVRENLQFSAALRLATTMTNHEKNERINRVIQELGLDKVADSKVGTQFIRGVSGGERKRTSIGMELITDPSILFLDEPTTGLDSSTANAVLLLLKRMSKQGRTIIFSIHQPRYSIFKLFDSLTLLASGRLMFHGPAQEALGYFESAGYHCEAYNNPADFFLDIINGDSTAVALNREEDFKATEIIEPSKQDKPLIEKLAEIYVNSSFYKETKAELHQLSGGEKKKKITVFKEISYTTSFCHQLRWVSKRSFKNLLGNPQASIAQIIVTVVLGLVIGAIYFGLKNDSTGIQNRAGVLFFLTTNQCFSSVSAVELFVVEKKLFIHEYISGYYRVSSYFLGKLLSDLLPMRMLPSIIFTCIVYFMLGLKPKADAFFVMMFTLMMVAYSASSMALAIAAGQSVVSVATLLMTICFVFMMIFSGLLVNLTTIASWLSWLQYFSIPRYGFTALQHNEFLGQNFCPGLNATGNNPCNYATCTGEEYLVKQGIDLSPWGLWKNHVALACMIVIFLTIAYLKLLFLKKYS
The following applies: Caco-2.
Description: (§1) To investigate whether the compounds of the present invention is a substrate for efflux transporters P-gp and BCRP in a Caco-2 cell model, thereby providing preclinical basis for analyzing the drug-drug interaction in pharmacokinetics.
(§2) • 1) Cell culture medium was added to each well of the Transwell. The HTS Transwell plate was incubated under conditions of 37° C. and 5% CO2 for 1 h prior to cell inoculation. • 2) Caco-2 cells were diluted with culture medium and the cell suspension was dispensed into filter wells of the 96-well HTS Transwell plate. […] The cell culture medium was changed periodically. • 3) Monolayer cell resistance was measured using the Millicell Epithelial Volt-Ohm detection system. The resistance of each well was recorded. After all wells were measured, the Transwell plate was put back into the incubator. TEER of each well was calculated according to the formula. The TEER value of each well should be greater than 230 ohm·cm^2. […] Preparation for Transporter Test • 1) The Caco-2 plate was taken out from the incubator. The monolayer cells were washed with pre-heated HBSS twice. The plate was then incubated at 37° C. for 30 min. • 2) Stock solutions of the compounds were prepared in DMSO and diluted with HBSS to obtain working solutions. Digoxin was used as a reference substrate for P-gp and rosuvastatin was used as a reference substrate for BCRP. Propranolol was used as a high permeability marker. • 3) The working solution (without inhibitor) was added to the Transwell insert (apical compartment) to determine the rate of drug transport in the apical to basolateral direction. The transfer buffer was added to the wells in the receiver plate (basolateral compartment). The working solution (without inhibitor) was added to the receiver plate wells (basolateral compartment) to determine the rate of drug transport in the basolateral to apical direction. The Transwell insert (apical compartment) was filled with the transport buffer. PSC833 was added to the apical and basolateral compartments to determine the rate of drug transport in the presence of P-gp inhibitors. • 4) The sample was transferred from the working solution to the quenching solution, and a sample with a time of 0 was prepared. The Transwell plate was incubated under conditions of 37° C. and 5% CO2 for 2 h. • 5) At the end of the transport cycle, the samples were transferred from the apical and basolateral wells into a new 96-well plate. Cold acetonitrile or methanol containing the appropriate internal standard (IS) was added to each well of the plate. The plate was vortexed for 10 min. The samples were centrifuged. The supernatant of an aliquot was mixed with an appropriate amount of ultrapure water (depending on the LC-MS/MS signal response and peak shape) prior to the LC-MS/MS analysis. • 6) The stock solution of lucifer yellow in DMSO was prepared and diluted with HBSS to determine the amount of lucifer yellow leakage after a 2-hour transport period. The lucifer yellow solution was added to the apical compartment. HBSS was added to the basolateral compartment. The plate was incubated at 37° C. for 30 min, and a certain amount of the solution was directly taken from the apical and basolateral wells and transferred to a new 96-well plate. The lucifer yellow fluorescence was measured in a fluorescence plate reader with 485 nm excitation and 530 nm emission (to monitor monolayer integrity).
(§3) Data were calculated using Microsoft Excel. The percentage of the compound remaining at each time point was estimated by determining the peak area ratio from the extracted ion chromatogram.
(§4) For drug transport analysis in the Caco-2 cell model, the apparent permeability coefficient (Papp) can be calculated according to the following formula, in cm/s:
(§5) [formula] • wherein the concentration C is in nM, the volume V is in μL, the time T is in s, and the area S is in cm^2.
(§6) The recovery rate is calculated according to the following formula:

Series [3] deals with T2, BCRP. Kind of series: Study on transporter substrates in Caco-2 cell model. The following applies: Caco-2; for efflux ratio at 2 h / recovery at 2 h: human; for efflux ratio at 2 h: Caco-2, Efflux ratio. For orientation: Caco-2 cells form a polarised layer with tight junctions and transporters.
Description: as §1, §2, §3, §4, §5, §6
The target in series [4] is T2, BCRP. The series is described as follows: in vitro. The following applies: for Papp A→B at 2 h: Caco-2, Papp (A-B) (10^−6, cm/s); for Papp B→A at 2 h: Caco-2, Papp (B-A) (10^−6, cm/s).
Description: as §1, §2, §3, §4, §5, §6
The test system of series [5] is Colo205 cells. Kind of series: Inhibition of in vitro proliferation of tumor cells by compounds (CTG, 6 days). Format: cell-based. The following applies: Homo sapiens, COLO 205, 144 h, Table 4, Test Example 2.4, small molecule fragments, 6 days of culture. As for the experimental part: To test the inhibitory activity of the pharmaceutical compounds on the in vitro proliferation of NCI-N87 and Colo205 tumor cells. The cells were treated with compounds at different concentrations in vitro, and after 6 days of culture, the proliferation of cells was detected using CTG (CellTiter-Glo® Luminescent Cell Viability Assay, Promega, Cat. No. G7558) reagents, and the in vitro activity of the compounds was evaluated according to the IC50 value. • 1. Culturing of cells: NCI-N87/Colo205 cells were cultured in RPMI-1640 medium containing 10% FBS. • 2. Preparation of cells: NCI-N87/Colo205 cells in logarithmic phase were taken, washed with PBS once, and digested with 2-3 mL of trypsin for 2-3 min. After the cells were digested completely, 10-15 mL of cell culture was added to elute the digested cells. The eluate was centrifuged at 1000 rpm for 5 min, and the supernatant was discarded. […] Sample adding: the prepared samples to be detected at different concentrations were added to the culture plate, and two duplicate wells were set for each sample. […] Plate reading: the 96-well cell culture plate was taken out, placed in a microplate reader, and measured for the chemiluminescence using the microplate reader. Data analysis: data were processed and analyzed using Microsoft Excel and Graphpad Prism 5.

[6] abbreviates: Caco-2, Recovery rate (%) BL-AP, KO143 −.
The mark [7] stands for this setting: Caco-2, with KO143 (concentration not stated), Recovery rate (%) AP-BL, KO143 +.
Setting [8] is: Caco-2, with KO143 (concentration not stated), Recovery rate (%) BL-AP, KO143 +.
Setting [9] is: Caco-2, Recovery rate (%) AP-BL, KO143 −.

`CC[C@@]1(O)C(=O)OCc2c1cc1n(c2=O)Cc2c-1nc1cc(F)c(C)c3c1c2[C@@H](NC(=O)C1CCC(O)CC1)CC3` (single isomer, unassigned) [P-II-1]: the P-gp substrate entry in series [1] is recorded as “neither transporter P-gp substrates nor transporter BCRP substrates”. Also, the “Papp (A-B) (10^−6, cm/s)” value in series [2] is 0.20 10^−6, cm/s. Also, in series [2], the “Papp (B-A) (10^−6, cm/s)” value is reported as 5.52 10^−6, cm/s. Also, the “Recovery rate (%) AP-BL” value in series [3] (KO143 −) was determined as 80.87%. Further, the efflux ratio at 2 h in series [3] (KO143 −) stood at 28.7. In addition, the recovery at 2 h stood at 77.5% in series [3] (setting [6]), 76.9% in series [3] (setting [7]) and 76.5% in series [3] (setting [8]).

For `CC[C@@]1(O)C(=O)OCc2c1cc1n(c2=O)Cc2c-1nc1cc(F)c(C)c3c1c2[C@@H](NC(=O)[C@H]1C[C@@H](O)C1)CC3` [P-II-3, (1s,3R)-N-((1S,9S)-9-ethyl-5-fluoro-9-hydroxy-4-methyl-10,13-dioxo-2,3,9,10,13,15-hexahydro-1H,12H-benzo[de]pyrano[3′,4′:6,7]indolizino[1,2-b]quinolin-1-yl)-3-hydroxycyclobutane-1-carboxamide], the P-gp substrate entry in series [1] is “neither transporter P-gp substrates nor transporter BCRP substrates”. Besides, in series [2], the “Papp (A-B) (10^−6, cm/s)” value is recorded as 0.20 10^−6, cm/s. Further, the “Papp (B-A) (10^−6, cm/s)” value in series [2] is recorded as 5.52 10^−6, cm/s. Besides, in series [4], the Papp A→B at 2 h was 0.17 ×10⁻⁶ cm/s. The same compound came in with a Papp B→A at 2 h in series [4] of 4.83 ×10⁻⁶ cm/s. Moreover, the efflux ratio at 2 h in series [3] (KO143 −) turned out to be 28.7. Besides, the recovery at 2 h in series [3] (setting [9]) was 80.9%; in series [3] (setting [6]), 77.5%; in series [3] (setting [7]), 76.9%; in series [3] (setting [8]) it was 76.5%.

For `CC[C@@]1(O)C(=O)OCc2c1cc1n(c2=O)Cc2c-1nc1cc(F)c(C)c3c1c2[C@@H](NC(=O)C1CCC(O)CC1)CC3` (single isomer, unassigned) [P-II-2], in series [1], the P-gp substrate result is reported as “neither transporter P-gp substrates nor transporter BCRP substrates”. In series [2], the “Papp (A-B) (10^−6, cm/s)” value was 0.07 10^−6, cm/s and the “Papp (B-A) (10^−6, cm/s)” value is 1.70 10^−6, cm/s. In series [3] (KO143 +), the “Recovery rate (%) AP-BL” value is listed as 62.42% and the “Recovery rate (%) BL-AP” value was 62.86%. In series [3] (KO143 −), the Efflux ratio was determined as 30.08, the “Recovery rate (%) AP-BL” value is 59.32% and the “Recovery rate (%) BL-AP” value was 58.51%.

For the compound `CC[C@@]1(O)C(=O)OCc2c1cc1n(c2=O)Cc2c-1nc1cc(F)c(C)c3c1c2[C@@H](NC(=O)C[C@@H](C)O)CC3` [P-III-20, (R)—N-((1S,9S)-9-ethyl-5-fluoro-9-hydroxy-4-methyl-10,13-dioxo-2,3,9,10,13,15-hexahydro-1H,12H-benzo[de]pyrano[3′,4′: 6,7]indolizino[1,2-b]quinolin-1-yl)-3-hydroxybutanamide], in series [5], the IC50 worked out at 20 nM.

Regarding `CC[C@@]1(O)C(=O)OCc2c1cc1n(c2=O)Cc2c-1nc1cc(F)c(C)c3c1c2[C@@H](NC(=O)[C@H]1C[C@H](O)C1)CC3` [P-II-4, (1r,3S)-N-((1S,9S)-9-ethyl-5-fluoro-9-hydroxy-4-methyl-10,13-dioxo-2,3,9,10,13,15-hexahydro-1H,12H-benzo[de]pyrano[3′,4′:6,7]indolizino[1,2-b]quinolin-1-yl)-3-hydroxycyclobutane-1-carboxamide], in series [1], the P-gp substrate entry is “neither transporter P-gp substrates nor transporter BCRP substrates”. For the same compound, the “Papp (A-B) (10^−6, cm/s)” value in series [2] was 0.06 10^−6, cm/s. In addition, the “Papp (B-A) (10^−6, cm/s)” value in series [2] is 1.65 10^−6, cm/s. Moreover, the apparent permeability from apical to basolateral (Papp A→B) at 2 h in series [4] is 0.05 ×10⁻⁶ cm/s. This compound also displayed a Papp B→A at 2 h in series [4] of 1.72 ×10⁻⁶ cm/s. Also, the efflux ratio at 2 h in series [3] (KO143 −) came out at 36.1. Besides, the recovery at 2 h in series [3] (setting [9]) is 63.8%; in series [3] (setting [6]), 64%; in series [3] (setting [7]) it was 65%; in series [3] (setting [8]), 63%.
